SMILES strings stand for the structures.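 Cultured in 96-well plates, cells were exposed to test compound for 48 hours across five concentrations. GI50 is the concentration that inhibits growth by half. At the TGI there is no net growth.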

What all share (experiment): DTP human tumour cell line panel, 48 h
Assay [1] relates to K-562 leukemia.
Assay [2] has as its system SNB-19 CNS.
In assay [3] the test system is SF-268 CNS.
Assay [4] relates to SK-OV-3 ovarian.
The test system of assay [5] is HT29 colon.
Assay [6] deals with OVCAR-5 ovarian.
For assay [7], the system named is OVCAR-8 ovarian.
Assay [8] deals with NCI-H460 lung.
Assay [9] deals with NCI-H226 lung.
In assay [10] the test system is HCC-2998 colon.

Consider `O=P1(O)c2ccccc2Nc2cc(C(F)(F)F)ccc21`, for which the TGI in assay [1], in [2], in assay [3], in [4], in assay [5] and in [6] was greater than 100 µM throughout. For the same molecule, the TGI in assay [7], in assay [8], in [9] and in assay [10] was greater than 100 µM each time.
For the molecule `O=Cc1ccc(O)c2ncccc12`, the GI50 in [1] is 3.29 µM; in assay [2], 6.03 µM; in [3], 2.65 µM; in assay [4], 10.8 µM; in assay [5], 7.46 µM; in assay [6] it was 4.65 µM. Further, the GI50 was 3.28 µM in [7], 3.47 µM in assay [8], 4.88 µM in [9] and 11.8 µM in [10]. The TGI in assay [1] was greater than 100 µM; in assay [2], greater than 100 µM; in assay [3], greater than 100 µM; in [4], 39.3 µM; in assay [5], 34.7 µM; in assay [6], 65.5 µM. The TGI is greater than 100 µM in [7], 17.2 µM in assay [8], greater than 79.1 µM in assay [9] and 41.8 µM in [10].
Turning to `C/C=C/C=C\C1OC(O)([C@H](CC)C(=O)NC/C=C/C=C(\C)[C@H](OC)C(C)C2OC(\C=C/C=C/C=C(\C)C(=O)c3c(O)ccn(C)c3=O)[C@H](O)[C@@H]2O)C(O)C(O)C1(C)C` (stereo not given in full), the concentration for total growth inhibition (TGI) in assay [1], in assay [2], in assay [3], in assay [4], in [5] and in assay [6] was greater than 100 µM throughout. Further, the TGI in assay [7], in assay [8], in [9] and in assay [10] was greater than 100 µM in each case.
For `C=CCN=C1NC(=O)C(CC(=O)Nc2ccc(C)cc2)S1` (stereo not given), the TGI in [1], in [2], in assay [3], in assay [4], in assay [5] and in assay [6] was greater than 100 µM each time. In addition, the TGI in assay [7], in assay [8], in [9] and in [10] was greater than 100 µM throughout.
Consider `COC(=O)C(CC(=O)Nc1ccc(Cl)c(Cl)c1)C(=O)C(=O)NC1C2CC3CC(C2)CC1C3` (stereo not given), for which the TGI in [1], in assay [2], in assay [3], in assay [4], in [5] and in [6] was greater than 100 µM in each case. In addition, the TGI in [7], in assay [8], in assay [9] and in [10] was greater than 100 µM each time.
In the case of `N#CC(C#N)=C1SCC(=O)CS1`, the TGI in assay [1], in assay [2], in assay [3], in assay [4], in [5] and in assay [6] was greater than 100 µM each time. In addition, the TGI in [7], in assay [8], in [9] and in assay [10] was greater than 100 µM throughout.
In the case of `CCOC1C=CCCO1` (stereo not given), the TGI in assay [1], in [2], in assay [3], in assay [4], in assay [5] and in assay [6] was greater than 100 µM in each case. The TGI in assay [7] was greater than 100 µM; in [8] it was greater than 100 µM; in [9], greater than 100 µM; in assay [10], 9.11 µM.
Turning to `COc1cc(C(=O)CC2(O)C(=O)Nc3c(Cl)cc(Cl)cc32)ccc1O` (stereo not given), the TGI in assay [1], in assay [2], in assay [3], in assay [4], in assay [5] and in assay [6] was greater than 100 µM each time. In addition, the TGI was greater than 100 µM in [7], greater than 100 µM in [8], greater than 100 µM in [9] and 88.7 µM in [10].
For the molecule `NC(CCSC(F)F)C(=O)O` (stereo not given), the total growth inhibition concentration (TGI) in assay [1], in assay [2], in [3], in assay [4], in assay [5] and in assay [6] was greater than 100 µM in each case. The concentration for total growth inhibition (TGI) in assay [7], in assay [8], in [9] and in assay [10] was greater than 100 µM each time.
For `Cc1nn(-c2nc3ccccc3[nH]2)c2c1C(c1ccc3c(c1)OCO3)CC(=O)N2` (stereo not given), the GI50 in assay [1] is 3.58 µM; in [2], 4.45 µM; in [3], 3.38 µM; in [4], 2.63 µM; in assay [5], 3.01 µM; in [6], 5.43 µM. The GI50 is 3.51 µM in assay [7], 2.36 µM in assay [8], 2.45 µM in [9] and 3.7 µM in assay [10]. Moreover, the TGI was greater than 100 µM in assay [1]; greater than 100 µM in [2]; 11.7 µM in assay [3]; 5.77 µM in [4]; greater than 23.6 µM in assay [5]; greater than 100 µM in assay [6]. Further, the TGI was greater than 100 µM in assay [7], 5.55 µM in assay [8], 7.09 µM in assay [9] and greater than 24.3 µM in [10].
As for `COc1cc(/C=C/C(=O)c2c(C)n([O-])c3ccc(Cl)cc3[n+]2=O)cc(OC)c1OC`, the GI50 is 15.2 µM in assay [1]; 21.2 µM in assay [2]; 15.4 µM in assay [3]; 34.6 µM in [4]; greater than 100 µM in [5]; greater than 100 µM in assay [6]. The GI50 in assay [7] is 11.8 µM; in assay [8], 56.6 µM; in [9], 65.2 µM; in [10] it was greater than 100 µM. The TGI is greater than 100 µM in [1]; 77 µM in [2]; greater than 100 µM in [3]; greater than 100 µM in assay [4]; greater than 100 µM in assay [5]; greater than 100 µM in assay [6]. The TGI in [7] was 33.4 µM; in assay [8], greater than 100 µM; in [9] it was greater than 100 µM; in assay [10], greater than 100 µM.

The TGI is the concentration at which net growth stops. Read a high TGI as lower sensitivity of the cells. The GI50 is the concentration that inhibits growth by half.

The record behind these values is PubChem BioAssay (NCI).
